Here are results for seven compounds from publication PMC6199744, “Development of Chemical Proteomics for the Folateome and Analysis of the Kinetoplastid Folateome” (ACS Infectious Diseases, 2018).

Where two headings read alike, the source gives them in different places.

What all share (format): binding
For assay [1], the target named is T1, HeLa cell extract proteins (Homo sapiens, UniProt O75489).
T1 construct: endogenous in cells; host or cells: HeLa cell extract
Conditions: HeLa; protein NDUFS3.

Assay [2] concerns the target T2, HeLa cell extract proteins (Homo sapiens, UniProt Q96RQ3).
T2 construct: endogenous in cells; host or cells: HeLa cell extract
T2 sequence (Q96RQ3 42-725): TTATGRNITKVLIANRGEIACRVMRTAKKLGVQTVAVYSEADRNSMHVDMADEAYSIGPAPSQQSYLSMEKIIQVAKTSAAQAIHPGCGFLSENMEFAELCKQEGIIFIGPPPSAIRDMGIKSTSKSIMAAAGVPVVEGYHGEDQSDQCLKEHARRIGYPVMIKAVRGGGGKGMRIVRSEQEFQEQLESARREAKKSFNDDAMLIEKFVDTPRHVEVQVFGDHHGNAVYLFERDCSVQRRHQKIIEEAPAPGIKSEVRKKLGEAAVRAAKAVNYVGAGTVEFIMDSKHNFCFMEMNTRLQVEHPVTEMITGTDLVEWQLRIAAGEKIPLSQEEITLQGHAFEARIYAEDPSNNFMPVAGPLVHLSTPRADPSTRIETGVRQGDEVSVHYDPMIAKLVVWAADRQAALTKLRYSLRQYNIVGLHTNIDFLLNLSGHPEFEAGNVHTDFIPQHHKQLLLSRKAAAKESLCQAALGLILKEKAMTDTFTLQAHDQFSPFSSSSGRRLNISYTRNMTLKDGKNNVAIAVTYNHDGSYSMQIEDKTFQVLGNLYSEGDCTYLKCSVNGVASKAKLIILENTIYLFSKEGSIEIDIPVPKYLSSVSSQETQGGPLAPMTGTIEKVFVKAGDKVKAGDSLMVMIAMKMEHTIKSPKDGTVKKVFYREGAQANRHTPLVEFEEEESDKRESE
Particulars: captured protein MCCC1; HeLa.

Assay [3] deals with T3, HeLa cell extract proteins (Homo sapiens, UniProt P35237).
T3 construct: endogenous in cells; host or cells: HeLa cell extract
T3 sequence (P35237 1-376): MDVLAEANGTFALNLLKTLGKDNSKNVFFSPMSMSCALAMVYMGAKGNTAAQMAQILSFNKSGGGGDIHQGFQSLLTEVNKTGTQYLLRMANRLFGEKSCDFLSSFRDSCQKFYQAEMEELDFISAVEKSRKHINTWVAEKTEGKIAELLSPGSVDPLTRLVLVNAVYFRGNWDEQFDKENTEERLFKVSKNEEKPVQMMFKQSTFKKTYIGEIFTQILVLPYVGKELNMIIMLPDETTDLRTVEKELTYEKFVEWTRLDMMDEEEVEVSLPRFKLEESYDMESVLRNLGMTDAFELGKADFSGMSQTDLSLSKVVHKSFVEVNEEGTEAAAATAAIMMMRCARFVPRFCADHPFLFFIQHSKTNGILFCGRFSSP
Particulars: protein SERPINB6; HeLa.

Assay [4] addresses T4, HeLa cell extract proteins (Homo sapiens, UniProt Q15020).
T4 construct: endogenous in cells; host or cells: HeLa cell extract
T4 sequence (Q15020 1-963): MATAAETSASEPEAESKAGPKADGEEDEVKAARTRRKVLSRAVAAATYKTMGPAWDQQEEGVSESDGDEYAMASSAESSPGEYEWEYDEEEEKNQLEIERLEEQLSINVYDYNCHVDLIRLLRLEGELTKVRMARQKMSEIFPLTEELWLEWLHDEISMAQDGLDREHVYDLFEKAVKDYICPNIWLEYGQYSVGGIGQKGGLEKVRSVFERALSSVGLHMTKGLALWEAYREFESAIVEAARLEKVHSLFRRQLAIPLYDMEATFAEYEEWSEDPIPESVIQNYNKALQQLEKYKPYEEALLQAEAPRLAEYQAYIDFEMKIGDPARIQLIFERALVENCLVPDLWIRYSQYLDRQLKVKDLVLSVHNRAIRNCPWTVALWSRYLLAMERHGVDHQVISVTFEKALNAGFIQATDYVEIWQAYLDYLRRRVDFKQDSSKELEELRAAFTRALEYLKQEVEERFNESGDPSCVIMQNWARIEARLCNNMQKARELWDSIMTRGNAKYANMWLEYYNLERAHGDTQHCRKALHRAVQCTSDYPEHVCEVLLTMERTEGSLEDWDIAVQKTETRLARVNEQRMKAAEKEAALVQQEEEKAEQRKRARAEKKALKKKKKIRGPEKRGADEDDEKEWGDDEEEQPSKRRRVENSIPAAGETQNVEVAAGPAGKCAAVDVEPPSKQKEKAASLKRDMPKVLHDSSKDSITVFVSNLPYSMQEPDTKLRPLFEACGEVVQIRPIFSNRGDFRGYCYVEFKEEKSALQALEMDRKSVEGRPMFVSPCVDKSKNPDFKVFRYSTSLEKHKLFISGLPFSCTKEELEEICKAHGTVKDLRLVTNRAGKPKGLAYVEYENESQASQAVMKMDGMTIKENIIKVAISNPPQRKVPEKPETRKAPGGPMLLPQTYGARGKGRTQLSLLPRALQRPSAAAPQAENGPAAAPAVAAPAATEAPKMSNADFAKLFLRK

In assay [5] the target is T5, HeLa cell extract proteins (Homo sapiens, UniProt O75533).
T5 construct: endogenous in cells; host or cells: HeLa cell extract
T5 sequence (O75533 whole entry): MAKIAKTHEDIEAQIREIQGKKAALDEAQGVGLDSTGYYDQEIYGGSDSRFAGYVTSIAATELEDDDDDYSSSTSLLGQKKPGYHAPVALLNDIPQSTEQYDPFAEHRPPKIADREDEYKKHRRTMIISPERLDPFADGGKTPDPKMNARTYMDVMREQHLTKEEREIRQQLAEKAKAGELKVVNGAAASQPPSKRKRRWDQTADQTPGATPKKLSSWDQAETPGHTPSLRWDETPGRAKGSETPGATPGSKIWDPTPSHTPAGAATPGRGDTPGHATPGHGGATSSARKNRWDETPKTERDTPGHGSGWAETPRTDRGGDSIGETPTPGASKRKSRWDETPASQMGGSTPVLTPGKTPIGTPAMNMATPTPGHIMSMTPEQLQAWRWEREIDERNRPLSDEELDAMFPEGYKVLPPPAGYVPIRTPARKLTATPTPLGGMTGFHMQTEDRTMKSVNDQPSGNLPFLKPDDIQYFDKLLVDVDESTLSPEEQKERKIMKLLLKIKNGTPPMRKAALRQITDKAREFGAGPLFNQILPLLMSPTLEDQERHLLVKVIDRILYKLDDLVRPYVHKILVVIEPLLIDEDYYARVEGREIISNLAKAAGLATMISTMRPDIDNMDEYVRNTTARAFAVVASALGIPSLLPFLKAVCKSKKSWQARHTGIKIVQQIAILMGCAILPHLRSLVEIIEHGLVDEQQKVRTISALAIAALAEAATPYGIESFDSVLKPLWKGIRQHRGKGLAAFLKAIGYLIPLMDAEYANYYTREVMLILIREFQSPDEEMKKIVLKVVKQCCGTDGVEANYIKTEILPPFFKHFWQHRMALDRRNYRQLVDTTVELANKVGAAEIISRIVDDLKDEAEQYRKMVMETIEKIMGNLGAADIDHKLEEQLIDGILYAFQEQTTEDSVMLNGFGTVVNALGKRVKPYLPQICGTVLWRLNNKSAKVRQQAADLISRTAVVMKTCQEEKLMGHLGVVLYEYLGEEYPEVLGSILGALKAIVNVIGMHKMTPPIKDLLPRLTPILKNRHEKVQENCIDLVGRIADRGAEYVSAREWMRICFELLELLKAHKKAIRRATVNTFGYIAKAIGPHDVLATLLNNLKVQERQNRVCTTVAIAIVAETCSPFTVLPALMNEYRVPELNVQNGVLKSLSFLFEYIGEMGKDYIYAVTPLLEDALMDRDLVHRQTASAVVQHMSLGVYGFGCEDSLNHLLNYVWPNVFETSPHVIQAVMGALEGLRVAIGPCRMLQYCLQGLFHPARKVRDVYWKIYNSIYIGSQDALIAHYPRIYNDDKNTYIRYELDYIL

The target of assay [6] is T6, HeLa cell extract proteins (Homo sapiens, UniProt O14979).
T6 construct: endogenous in cells; host or cells: HeLa cell extract
T6 sequence (O14979 1-420): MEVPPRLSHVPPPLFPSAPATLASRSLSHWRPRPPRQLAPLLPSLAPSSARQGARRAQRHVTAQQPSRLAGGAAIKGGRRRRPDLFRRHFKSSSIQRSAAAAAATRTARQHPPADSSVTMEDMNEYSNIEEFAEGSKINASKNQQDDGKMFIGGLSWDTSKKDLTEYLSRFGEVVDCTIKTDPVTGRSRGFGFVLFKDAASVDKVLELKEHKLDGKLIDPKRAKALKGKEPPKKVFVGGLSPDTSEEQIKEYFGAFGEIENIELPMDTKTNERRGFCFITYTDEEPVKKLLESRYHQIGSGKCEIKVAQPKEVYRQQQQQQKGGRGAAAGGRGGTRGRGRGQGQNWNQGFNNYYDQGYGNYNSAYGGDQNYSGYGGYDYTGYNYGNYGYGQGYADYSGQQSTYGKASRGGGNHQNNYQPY

T1 sequence (O75489 37-264): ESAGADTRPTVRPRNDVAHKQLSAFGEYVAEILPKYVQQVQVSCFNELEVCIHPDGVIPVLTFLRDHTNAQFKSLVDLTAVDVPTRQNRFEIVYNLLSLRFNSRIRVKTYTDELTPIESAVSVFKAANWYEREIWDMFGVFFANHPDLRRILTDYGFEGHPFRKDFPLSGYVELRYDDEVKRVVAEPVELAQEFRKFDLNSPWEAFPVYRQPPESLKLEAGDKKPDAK

For the compound `Nc1nc2cccc(-c3ccccc3)c2n1Cc1ccc(Cl)c(Cl)c1` [compound 3], the “fold changes relative to vehicle control” value in assay [1] was 0.86; in assay [2] it was 1.21; in assay [3] it was 0.92.
As for `NCCOCCOCC(=O)Nc1nc2ncc(CNc3ccc(C(=O)NC(CCC(=O)O)C(=O)O)cc3)nc2c(=O)[nH]1` (stereo not drawn) [compound 6], the “fold changes relative to vehicle control” value in assay [4] (protein SART3, HeLa) is 0.89; in assay [5] (HeLa, protein SF3B1) it was 1.16; in assay [6] (HeLa, captured protein HNRPDL), 1.06.
Consider `Nc1nc2[nH]cc(CCc3ccc(C(=O)N[C@@H](CCC(=O)O)C(=O)O)cc3)c2c(=O)[nH]1` [PTX, pemetrexed], for which the “fold changes relative to vehicle control” value in assay [4] is given as 0.84; in assay [5], 1.1; in assay [6], 1.02.
Take `Nc1nc2c(c(=O)[nH]1)N(C=O)C(CNc1ccc(C(=O)N[C@@H](CCC(=O)O)C(=O)O)cc1)CN2` (stereo partly drawn) [LEU, leucovorin]: the “fold changes relative to vehicle control” value in assay [4] (protein SART3, HeLa) worked out at 0.82; in assay [5] (HeLa, protein SF3B1), 1.02; in assay [6] (HeLa, captured protein HNRPDL), 1.09.
Turning to `CCCCCCOc1ccc(Cc2cnc(N)nc2N)cc1` [compound 1], the “fold changes relative to vehicle control” value is reported as 1.05 in assay [1], 1.03 in assay [2] and 1.14 in assay [3].
Consider `NCCCNc1ccc(C(=O)NC(CCC(=O)O)C(=O)O)cc1` (stereo not drawn) [compound 7], for which the “fold changes relative to vehicle control” value in assay [4] (protein SART3, HeLa) came out at 0.94; in assay [5] (HeLa, protein SF3B1) it was 1.07; in assay [6] (HeLa, captured protein HNRPDL) it was 1.03.
Consider `CCCCCCOc1cccc(Cc2cnc(N)nc2N)c1` [compound 2], for which the figures for the “fold changes relative to vehicle control” value in assay [1], in assay [2] and in assay [3] were 1.19, 1.15 and 1.61, respectively.
